{"source": "patent US8802161B2", "about": "“Herbal composition and method of use for the treatment of cancer” (Florida Agricultural and Mechanical University, priority 2003, dated 2014)", "key": {"mitochondrial complex II": {"system": "mitochondrial complex II", "assay": "kinetic activity of mitochondrial complex II in cancer cells", "assay_type": "biochemical"}, "complex IV": {"system": "complex IV", "assay": "mitochondrial respiration / O2 utilization through complex IV in cancer cells", "assay_type": "cell-based"}, "cancer cells": {"system": "cancer cells", "assay": "lethality to cancer cells", "assay_type": "cell-based"}, "[1]": {"system": "mitochondrial complex's I and IV", "assay": "Vmax and Km of mitochondrial complexes I and IV", "assay_type": "biochemical"}, "LDH Type V": {"target": "T1, LDH Type V (Oryctolagus cuniculus, UniProt P13491)", "T1 construct": "were determined in pure isolated enzyme preparations; from tissue; host or cells: rabbit muscle", "assay": "LDH enzyme kinetic activity (NADH oxidation)", "assay_type": "biochemical, rabbit", "source_text": "FIG. 2—The toxicity of selected plant extracts and 2′,3,4′5,7-pentahydroxyflavone were previously determined on N-2A neuroblastoma cells prior to examination of their effects on kinetic activity of pyruvate kinase (PK) and LDH (data not shown). Briefly, the effects of experimental compounds on PK and LDH Type V, resembling that inherent to human cancer (Koukourakis et al., Br J Cancer. 2003; 89:877-85; Augoff and Grabowski. Pol Merkuriusz Lek 2004; 17:644-7; Nagai et al., Int J Cancer. 198815; 10-6; Evans et al., Biol. Chem. 1985; 260:306-14) were determined in pure isolated enzyme preparations. Briefly, PK Type III (from rabbit muscle [2.7.1.40]) was prepared in distilled water+HEPES (pH 7.5), at a concentration of 0.5 enzyme U/ml. Pyruvic acid was converted to lactate in the presence of LDH (from rabbit muscle, type V-S [EC 1.1.1.27]), at a concentration of 10 U/ml in the presence of adenosine, 2′,5′-diphospahte (ADP) (1.5 mM), β-NADH (1 mM)±magnesium sulfate (MgSO4) (5 mM). Experimental compounds were incubated with the enzyme solution for 10 minutes and addition of 1 mM phosphoenolpyruvate (PEP) prepared in distilled water started the reaction. Negative controls were established for all compounds tested. Enzyme activities were determined by spectrophotometric analysis using a UV spectrometer at 340 nm, by monitoring the oxidation of NADH. Experimental compounds that blocked the reaction through the PK/LDH cascade, were re-analyzed for LDH inhibition. LDH activity was achieved using an enzyme reaction mixture, minus PK or PEP, and starting the reaction with pyruvate (1 mM) prepared in buffered distilled water. Validation studies for LDH kinetic activity were established by monitoring the oxidation of NADH over time and concentration with dual detection quantifying lactic acid using a lactate oxidase based colorimetric enzymatic assay (Procedure No 735, Sigma Diagnostics, St. Louis, Mo.). FIG. 2A describes the effect of tumoricidal plant extracts and 2′,3,4′5,7-pentahydroxyflavone on inhibition of PK/LDH activity. The data represent reaction rate of NADH oxidation in the presence of enzyme/cofactor reagents+PEP (1 mM)±varying concentration of experimental compounds at 30 Min. […] Significance of difference from the controls were determined by a one-way ANOVA, followed by a Tukey mean comparison post hoc test, [*] group P<0.001,*P<0.001. FIG. 2B describes the effect of tumoricidal plant-extracts and 2′,3,4′5,7-pentahydroxyflavone on inhibition of LDH activity. The data represent reaction rate of NADH oxidation in the presence of enzyme/cofactor reagents+pyruvate (1 mM)±single level of experimental compound over time. […] Significance of difference from the control was determined by a two-way ANOVA, [*] P<0.001."}, "N-2A neuroblastoma cells": {"system": "N-2A neuroblastoma cells", "assay": "in vitro screening of >700 nutraceuticals for tumoricidal properties (loss of cell viability, 24 H)", "assay_type": "cell-based", "conditions": "24 H incubation at 37° C.", "method": "In brief, we conducted a large scale screening of over 700 commonly sold nutritional supplements for relative tumoricidal properties in vitro.\nThe data represent loss of cell viability after 24 H incubation at 37° C., and represent the Mean±S.E.M. . . . n=4"}, "[2]": {"system": "neuroblastoma and MCF-7 cell line", "assay": "toxicity of 3-BP versus 2,3-DMBQ: growth inhibition of MCF-7 cells and cell viability of N2A cells", "assay_type": "cell-based", "conditions": "24 hour incubation (FIGS. 3A,B)", "experimental": "Briefly, cells were grown in Eagles MEM medium with […] and 10% calf serum and plated at 5′ 104 cells in 24 well plates. Appropriate positive (tamoxifen) and negative (no drug) controls were maintained simultaneously. After 24 hour incubation, cells were trypsined and collected by centrifugation, re-suspended in fresh media and cells were counted using trypan blue dye on a hemocytometer. […] FIG. 3B represents the evaluation of 3-BP versus 2,3-DMBQ on cell viability in N2A neuroblastoma cell line. Briefly, the experimental media consisted of DMEM (without phenol red), supplemented with 1.8% FBS (v/v), penicillin (100 U/ml)/streptomycin (0.1 mg/ml), 4 mM L-glutamine and 2 μM sodium pyruvate. Cells were plated at approximately 0.5×10^6 cells/ml in 96 well plates. A stock solution of each experimental compound was prepared in HBSS containing 5 mM HEPES, adjusted to a pH of 7.4. After 24 hours incubation at 37° C. and 5% CO2/atmosphere almar blue indicator dye was used to assess cell viability. Quantitative analysis of dye conversion was measured on a microplate fluorometer—Model 7620-version 5.02, Cambridge Technologies Inc. with settings fixed at [550/580], [excitation/emission], wavelengths. […]"}, "[3]": {"system": "MD-MB-231 human mammary carcinoma", "assay": "efficacy against MD-MB-231 human mammary carcinoma xenograft", "assay_type": "in vivo, Nu/Nu nude mice", "conditions": "in comparison to a vehicle control; formulation i.p./s.c., taxol i.v.", "method": "Briefly, 6 week old female Nu/Nu mice were kept in an autoclaved micro isolator cage, maintained under pathogen free conditions. The tumors were ascetically surgically removed and transferred to a sterile Petri dish containing RPMI-1640. The homogenate was centrifuged, pelleted, resuspended into a concentration of 10 million cells/ml and injected into the mammary fat pad. The tumors were established by day 9 after implant and treatment began. The formula was prepared in sterile saline, and administered by i.p. injection for 3 days and s.c for the next 3 days, stopping at day 15. Taxol—(24 mg/kg in 2% PEG 300, 8% cremophor CL an 80% sterile Saline) was administered i.v. intermittently up to day 19 (days 10,13,16 and 19). […] The data represents tumor volume estimation (mm3) and expressed as the mean±S.E.M., n=4, for treatment groups, with n=1 for the control. […] The data represents weight gain (g) and are expressed as the mean±S.E.M., n=4, for treatment groups, with n=1 for the control."}}, "note": "Read-outs that look alike come from different tables or passages of the source.", "data": [{"molecule": "COC1=C(OC)C(=O)C(C/C=C(\\C)CC/C=C(\\C)CC/C=C(\\C)CC/C=C(\\C)CC/C=C(\\C)CC/C=C(\\C)CC/C=C(\\C)CC/C=C(\\C)CC/C=C(\\C)CCC=C(C)C)=C(C)C1=O", "note": "[CoQ10, ubiquinone (50)]", "values": [{"measurement": "Vmax / kinetic activity of mitochondrial complex II", "setting": "mitochondrial complex II", "value": "increase"}, {"measurement": "Vmax / kinetic activity of mitochondrial complex II", "setting": "mitochondrial complex II; listed as ubiquinone (50)", "value": "augmenting"}, {"measurement": "rate of mitochondrial respiration or O2 utilization through complex IV", "setting": "complex IV", "value": "did not control"}, {"measurement": "rate of mitochondrial respiration or O2 utilization through complex IV", "setting": "complex IV; listed as ubiquinone (50)", "value": "no positive effect"}, {"measurement": "lethality to cancer cells", "setting": "cancer cells", "value": "not as lethal as expected"}]}, {"molecule": "Cc1cc2nc3c(=O)[nH]c(=O)nc-3n(C[C@H](O)[C@H](O)[C@H](O)COP(=O)(O)O)c2cc1C", "note": "[FMN, flavin mononucleotide]", "values": [{"measurement": "Vmax and Km of mitochondrial complex's I and IV", "setting": "[1]", "value": "augmenting the Vmax and reduction of Km"}]}, {"molecule": "O=c1c(O)c(-c2ccc(O)c(O)c2)oc2cc(O)cc(O)c12", "note": "[quercetin]", "values": [{"measurement": "LDH inhibition (LDH enzyme kinetic profiles)", "setting": "LDH Type V", "value": "LDH inhibitors"}]}, {"molecule": "COc1ccc(-c2cc(=O)c3c(O)cc(O[C@@H]4O[C@H](CO[C@@H]5O[C@@H](C)[C@H](O)[C@@H](O)[C@H]5O)[C@@H](O)[C@H](O)[C@H]4O)cc3o2)cc1O", "note": "[diosmin]", "values": [{"measurement": "tumoricidal potency (loss of cell viability)", "setting": "N-2A neuroblastoma cells", "value": "most potent tumoricidal"}]}, {"molecule": "O=C(O[C@@H]1Cc2c(O)cc(O)cc2O[C@@H]1c1cc(O)c(O)c(O)c1)c1cc(O)c(O)c(O)c1", "note": "[epigallocatechin gallate]", "values": [{"measurement": "LDH inhibition (LDH enzyme kinetic profiles)", "setting": "LDH Type V", "value": "LDH inhibitors"}]}, {"molecule": "O=c1c(O)c(-c2ccc(O)cc2O)oc2cc(O)cc(O)c12", "note": "[2′,3,4′5,7-pentahydroxyflavone]", "values": [{"measurement": "LDH inhibition (LDH enzyme kinetic profiles)", "setting": "LDH Type V", "value": "inhibitor"}]}, {"molecule": "Cc1cc2nc3c(=O)[nH]c(=O)nc-3n(C[C@H](O)[C@H](O)[C@H](O)COP(=O)(O)OP(=O)(O)OC[C@H]3O[C@@H](n4cnc5c(N)ncnc54)[C@H](O)[C@@H]3O)c2cc1C", "note": "[FAD, flavin adenine dinucleotide]", "values": [{"measurement": "Vmax and Km of mitochondrial complex's I and IV", "setting": "[1]", "value": "augmenting the Vmax and reduction of Km"}]}, {"molecule": "CC(C)=CCC[C@]1(C)C=Cc2c(O)c3c(c(CC=C(C)C)c2O1)O[C@]12C(=C[C@@H]4C[C@H]1C(C)(C)O[C@@]2(C/C=C(/C)C(=O)O)C4=O)C3=O", "note": "[gambogic acid]", "values": [{"measurement": "tumoricidal potency (loss of cell viability)", "setting": "N-2A neuroblastoma cells", "value": "most potent tumoricidal"}]}, {"molecule": "COC1=C(OC)C(=O)C(C)=CC1=O", "note": "[DMBQ]", "values": [{"measurement": "lethality to cancer cells", "setting": "cancer cells", "value": "lethal"}, {"measurement": "toxicity relative to bromopyruvate", "setting": "[2]", "value": "> 50", "unit": "×"}]}, {"molecule": "C[C@H]1[C@H](C)CC[C@]2(C)CC[C@]3(C)C(=CC[C@@H]4[C@@]5(C)CC[C@@H](O)[C@](C)(C(=O)O)[C@@H]5CC[C@]43C)[C@H]12", "note": "[boswellic acid]", "values": [{"measurement": "tumoricidal potency (loss of cell viability)", "setting": "N-2A neuroblastoma cells", "value": "most potent tumoricidal"}]}, {"molecule": "CC(=O)O[C@H]1C(=O)[C@@]2(C)[C@H]([C@H](OC(=O)c3ccccc3)[C@]3(O)C[C@H](OC(=O)[C@H](O)[C@@H](NC(=O)c4ccccc4)c4ccccc4)C(C)=C1C3(C)C)[C@]1(OC(C)=O)CO[C@@H]1C[C@@H]2O", "note": "[taxol®]", "values": [{"measurement": "tumor growth and growth latency", "setting": "[3]", "value": "reduced tumor growth and growth latency"}]}, {"molecule": "Cc1cc2nc3c(=O)[nH]c(=O)nc-3n(C[C@H](O)[C@H](O)[C@H](O)CO)c2cc1C", "note": "[vitamin B2, 7,8-dimethyl-10-ribityl-isoalloxazine]", "values": [{"measurement": "rate of mitochondrial respiration or O2 utilization through complex IV", "setting": "complex IV", "value": "drastically potentiates"}, {"measurement": "Vmax and Km of mitochondrial complex's I and IV", "setting": "[1]", "value": "augmenting the Vmax and reduction of Km"}]}, {"molecule": "O=C(O)CC(O)(CC(=O)O)C(=O)O", "note": "[citric acid]", "values": [{"measurement": "LDH inhibition (LDH enzyme kinetic profiles)", "setting": "LDH Type V", "value": "LDH inhibitors"}]}]}
